# Test results: patent US8952024B2, “Herbicidal pyrimidone derivatives” (E I du Pont de Nemours and Company, priority 2009, dated 2015)
# Key:
# Assay in all cases: Test B pre-/postemergence plant response
# Format in all cases: in vivo
# [1] = test system: woolly cupgrass (Eriochloa villosa)
# Summary of the method: (§1)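 Greenhouse herbicide screen. Pre- and postemergence (1- to 4-leaf) spray of compound in solvent/surfactant mixture; loam–sand soil for pre, peat/vermiculite medium for post. Visual control rating 0–100 at 13 to 15 days after treatment.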
# [2] = test system: sunflower (common oilseed sunflower, Helianthus annuus); conditions: Preemergence
# Summary of the method: as §1
# [3] = test system: large crabgrass (Digitaria sanguinalis)
# Summary of the method: as §1
# [4] = test system: pigweed (Amaranthus retroflexus)
# Summary of the method: as §1
# [5] = test system: galium (catchweed bedstraw, Galium aparine); conditions: Preemergence, 125 g ai/ha; scale 0 to 100, 0 no effect, 100 complete control
# Summary of the method: as §1
# [6] = test system: Surinam grass (Brachiaria decumbens)
# Summary of the method: as §1
# [7] = test system: Italian ryegrass (Lolium multiflorum)
# Summary of the method: as §1
# [8] = test system: nightshade (eastern black nightshade, Solanum ptycanthum); conditions: Preemergence
# Summary of the method: as §1
# corn (Zea mays) = test system: corn (Zea mays)
# Summary of the method: as §1
# [9] = test system: goosegrass (Eleusine indica)
# Summary of the method: as §1
# [10] = test system: lambsquarters (Chenopodium album)
# Summary of the method: as §1
# [11] = 16 g ai/ha, Postemergence, 0 to 100 scale
# [12] = 31 g ai/ha, postemergence, scale 0 to 100, 0 is no effect, 100 is complete control
# [13] = 62 g ai/ha, postemergence, 0 is no effect, 100 is complete control, 13 to 15 days
# [14] = Postemergence, 125 g ai/ha, visual rating after 13 to 15 days, scale 0 (no effect) to 100 (complete control)
# [15] = Preemergence, 16 g ai/ha, scale 0 to 100, 0 no effect, 100 complete control
# [16] = Preemergence, 31 g ai/ha, scale 0 to 100 (0 no effect, 100 complete control)
# [17] = Preemergence, 62 g ai/ha, scale 0 to 100, 0 no effect, 100 complete control
# [18] = Preemergence, 125 g ai/ha, scale 0 to 100, 0 no effect, 100 complete control
# [19] = 31 g ai/ha, scale 0 to 100 (0 no effect, 100 complete control)
# [20] = 62 g ai/ha, scale 0 to 100, 0 no effect, 100 complete control
# [21] = 125 g ai/ha, scale 0 to 100, 0 no effect, 100 complete control
smiles,measurement,setting,value
O=C1CCCC(O)=C1C(=O)c1cnc(-c2cccc(Br)c2)n(-c2ccccc2)c1=O [Compound 69],"Plant response rating, Cupgrass, Woolly",[1]; [11],75
same,"Plant response rating, Cupgrass, Woolly",[1]; [12],90
same,"Cupgrass, Woolly plant response rating (0 to 100 scale)",[1]; [13],95
same,"Plant response rating, Cupgrass, Woolly",[1]; [14],95
same,"Plant response rating, Cupgrass, Woolly",[1]; [15],0
same,"Plant response rating, Cupgrass, Woolly",[1]; [16],0
same,"Plant response rating, Cupgrass, Woolly",[1]; [17],0
same,"Plant response rating, Cupgrass, Woolly",[1]; [18],45
same,"Plant response rating, Sunflower",[2]; [19],0
same,"Plant response rating, Sunflower",[2]; [20],0
same,"Plant response rating, Sunflower",[2]; [21],5
same,"Plant response rating, Crabgrass, Large",[3]; [11],95
same,"Plant response rating, Crabgrass, Large",[3]; [12],95
same,"Crabgrass, Large plant response rating (0 to 100 scale)",[3]; [13],95
same,"Plant response rating, Crabgrass, Large",[3]; [14],98
same,"Plant response rating, Crabgrass, Large",[3]; [15],75
same,"Plant response rating, Crabgrass, Large",[3]; [16],98
same,"Plant response rating, Crabgrass, Large",[3]; [17],100
same,"Plant response rating, Crabgrass, Large",[3]; [18],100
same,"Plant response rating, Pigweed",[4]; [11],95
same,"Plant response rating, Pigweed",[4]; [12],98
same,Pigweed plant response rating (0 to 100 scale),[4]; [13],100
same,"Plant response rating, Pigweed",[4]; [14],100
same,"Plant response rating, Pigweed",[4]; [15],95
same,"Plant response rating, Pigweed",[4]; [16],98
same,"Plant response rating, Pigweed",[4]; [17],100
same,"Plant response rating, Pigweed",[4]; [18],100
same,"Plant response rating, Galium",[5],0
same,"Plant response rating, Surinam Grass",[6]; [11],75
same,"Plant response rating, Surinam Grass",[6]; [12],85
same,Surinam Grass plant response rating (0 to 100 scale),[6]; [13],90
same,"Plant response rating, Surinam Grass",[6]; [14],100
same,"Plant response rating, Surinam Grass",[6]; [16],80
same,"Plant response rating, Surinam Grass",[6]; [17],100
same,"Plant response rating, Surinam Grass",[6]; [18],100
same,"Plant response rating, Ryegrass, Italian",[7]; [11],0
same,"Plant response rating, Ryegrass, Italian",[7]; [12],30
same,"Ryegrass, Italian plant response rating (0 to 100 scale)",[7]; [13],50
same,"Plant response rating, Ryegrass, Italian",[7]; [14],50
same,"Plant response rating, Ryegrass, Italian",[7]; [16],0
same,"Plant response rating, Ryegrass, Italian",[7]; [17],0
same,"Plant response rating, Ryegrass, Italian",[7]; [18],0
same,"Plant response rating, Nightshade","[8]; 16 g ai/ha, scale 0 to 100, 0 no effect, 100 complete control",80
same,"Plant response rating, Nightshade",[8]; [19],95
same,"Plant response rating, Nightshade",[8]; [20],98
same,"Plant response rating, Nightshade",[8]; [21],98
same,"Plant response rating, Corn",corn (Zea mays); [11],0
same,"Plant response rating, Corn",corn (Zea mays); [12],5
same,Corn plant response rating (0 to 100 scale),corn (Zea mays); [13],10
same,"Plant response rating, Corn",corn (Zea mays); [14],25
same,"Plant response rating, Corn",corn (Zea mays); [15],0
same,"Plant response rating, Corn",corn (Zea mays); [16],0
same,"Plant response rating, Corn",corn (Zea mays); [17],0
same,"Plant response rating, Corn",corn (Zea mays); [18],0
same,"Plant response rating, Goosegrass",[9]; [11],75
same,"Plant response rating, Goosegrass",[9]; [12],75
same,Goosegrass plant response rating (0 to 100 scale),[9]; [13],80
same,"Plant response rating, Goosegrass",[9]; [14],85
same,"Plant response rating, Goosegrass",[9]; [15],55
same,"Plant response rating, Goosegrass",[9]; [16],95
same,"Plant response rating, Goosegrass",[9]; [17],100
same,"Plant response rating, Goosegrass",[9]; [18],100
same,"Plant response rating, Lambsquarters",[10]; [11],100
same,"Plant response rating, Lambsquarters",[10]; [12],100
same,Lambsquarters plant response rating (0 to 100 scale),[10]; [13],100
same,"Plant response rating, Lambsquarters",[10]; [14],100
same,"Plant response rating, Lambsquarters",[10]; [15],95
same,"Plant response rating, Lambsquarters",[10]; [16],98
same,"Plant response rating, Lambsquarters",[10]; [17],100
same,"Plant response rating, Lambsquarters",[10]; [18],100
